In patent US5707990A, “2-substituted amino and thio alkyl benzoxazine antimicrobial agents” (Ortho Pharmaceutical Corporation, priority 1996, dated 1998):

target: T1, Kinase A and SpoOF (Bacillus subtilis, UniProt P16497); assay: Autophosphorylation of Kinase A and Transphosphorylation of SpoOF Assay (HPK in vitro assay); format: biochemical; settings: [32P]ATP, gel/phosphoimager, inhibitor concentrations from 1 to 500 μM, IC50 of less than 1000 μM considered active
T1 construct: made in house; host or cells: recombinant E. coli
T1 sequence (P16497 1-606): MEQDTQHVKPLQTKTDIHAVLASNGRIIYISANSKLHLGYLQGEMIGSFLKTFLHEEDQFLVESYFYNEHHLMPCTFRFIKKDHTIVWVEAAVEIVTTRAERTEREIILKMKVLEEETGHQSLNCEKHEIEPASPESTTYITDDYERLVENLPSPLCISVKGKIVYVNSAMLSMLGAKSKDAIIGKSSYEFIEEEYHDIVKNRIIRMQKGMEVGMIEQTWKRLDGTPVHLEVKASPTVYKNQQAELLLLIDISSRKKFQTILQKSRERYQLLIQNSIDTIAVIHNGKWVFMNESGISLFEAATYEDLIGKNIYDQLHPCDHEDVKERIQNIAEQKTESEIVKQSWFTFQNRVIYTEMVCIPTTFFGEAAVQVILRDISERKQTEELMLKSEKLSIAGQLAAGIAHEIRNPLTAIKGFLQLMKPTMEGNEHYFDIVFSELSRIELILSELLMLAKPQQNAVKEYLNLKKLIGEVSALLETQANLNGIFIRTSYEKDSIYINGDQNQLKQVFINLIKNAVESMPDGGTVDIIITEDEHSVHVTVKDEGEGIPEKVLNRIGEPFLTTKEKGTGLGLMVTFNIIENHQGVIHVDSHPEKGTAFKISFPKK
Procedure: Autophosphorylation of Kinase A and Transphosphorylation of SpoOF Assay
To study the effect of the compounds of the present invention on the signal transduction process in bacteria, the inhibiting effect of the compounds on the sporulation operon proteins Kinase A and SpoOF was examined. Specifically, the inhibition of autophosphorylation of Kinase A and the transphosphorylation of SpoOF was determined in the following assays. The SpoOF response regulator is the primary substrate for phosphorylation by the protein kinase, Kin A, involved in the sporulation process in bacteria. See D. Burbulys, K. A. Trach, J. A. Hoch, Cell, 64, 545-552 (1991 ). SpoOF and KinA were prepared from recombinant E. coli overexpressing the proteins (J. Cavanagh et al, Amino Adds, 6, 131-140 (1994) and references therein).
The following stock reagents were either prepared and used promptly or stored at the indicated temperature:
8 X Salts: 2M KCl (5 mL), 1M MgCl2 ([…]), 1M CaCl2 ([…]), 10 mg/mL phenylmethylsulfonyl fluoride ([…]), 1M dithioreitol (50 mL), 0.25M Na2 EDTA (32 mL) and H2 O 3.82 mL (-20° C.)
5X Loading Dye: 0.5M TRIS-HCl-pH 6.8 (7.5 mL), 10% SDS (2 mL) 0.1% bromophenol blue (0.5 mL), 100% glycerol (3 mL) and 12.5M 2-mercaptoethanol (0.3 mL)
1-1.3 mg/mL KinA: 15 mM TRIS-HCl, pH 8.0, 6 mM KCl; 4 mM 2-mercaptoethanol;40% glycerol (-20° C.)
1 mg/mL SpoOF: 17.5 mM TRIS-HCl, pH 8.0; 0.7 mM KCl; 0.7 mM MgCl2; 0.7 mM CaCl2; 5 mM 2-mercaptoethanol; 30% Glycerol (-20° C.)
5% Stacking Gel: 40% 29:1 acrylamide:bis acrylamide (1.25 mL), 0.5M TRIS-HCl, pH 6.8 (2.5 mL), 10% SDS (0.1 mL), D-H2 O (6.15 mL) 10% ammonium persulfate (100 mL) and TEMED (25 mL)
SDS Running Buffer: TRIS-BASE (3.02 g), glycine (14.4 g) SDS (1 g), D-H2 O (to 1 L)
The reaction mixture was prepared from 8X Salts (87 μL), 1M TRIS, pH 8 (118 μL), 50% glycerol (63 μL), SpoOF (14.1 μL) and KinA (7.0 μL). Microcentrifuge tubes were charged with the reaction mixture (18.5 μL) and a 1.0 mM solution of the test compound in 5% DMSO (18.5 μL), and incubated for 15 min on ice. 100 mM ATP solution (3.0 μl, containing 625 μCi [^32 P]ATP) was added, and the mixture left for 10 minutes at room temperature. The reaction was quenched with 5X loading dye (10 μL per tube) and the samples were loaded on a prepared 5% Stacking Gel, or stored on dry ice until ready for use. The prepared wells were filled with SDS Running Buffer, samples were loaded into the wells, and 80 volts were applied to the gel until the dye front reached the bottom of the stacking gel. The voltage was then increased to 250 volts until electrophoresis was complete. Radioactive bands in the gel corresponding to phosphorylated KinA and SpoOF were imaged and quantitated with a phosphoimager.
If either enzyme was inhibited (as evidenced by the absence of labelled protein in the developed gel), an IC50 was calculated by running the assay with a range of inhibitor concentrations from 1 to 500 μM. After electrophoresis of the reaction mixtures, percent inhibition was determined by measuring the concentration of radioactive phosphorus with a phosphoimager and calculating the values using a software program (BioRad Molecular Analyst). IC50 values of less than 1000 μM are considered active.

| Compound | IC50 [µM] |
| --- | --- |
| Cc1ccc2c(c1)N(Cc1cccc(Cl)c1)C(=O)C(CCNC(=N)N)O2 (stereo not drawn) [Example 19] | 52 |
| O=C1C(CCSC(=S)N2CCCC2)Oc2ccccc2N1Cc1ccccc1Cl (stereo not drawn) [Example 25] | 274 |
| N=C(N)NCCC1Oc2cccnc2N(Cc2cccc(Cl)c2)C1=O (stereo not drawn) [Example 20] | 344 |

Other lines, results leading:

| IC50 [µM] | Compound |
| --- | --- |
| 325 | N=C(N)NCCC1Oc2ccccc2N(Cc2ccccc2Cl)C1=O (stereo not drawn) [Example 22] |
| 182 | N=C(N)NCCC1Oc2cc([N+](=O)[O-])ccc2N(Cc2cccc(Cl)c2)C1=O (stereo not drawn) [Example 23] |
| 80 | N=C(N)NCCC1Oc2ccc(C(F)(F)F)cc2N(Cc2cccc(Cl)c2)C1=O (stereo not drawn) [Example 18] |
